Tests used:
[1] = biological target: Phosphatidylinositol 4,5-bisphosphate 3-kinase catalytic subunit gamma isoform (Homo sapiens, UniProt P48736); test: Inhibition of human recombinant PI3Kgamma using PIP2 by Kinase-Glo Plus assay
[2] = biological target: T1, Phosphatidylinositol 4,5-bisphosphate 3-kinase catalytic subunit alpha isoform (Homo sapiens, UniProt P42336); test: Inhibition of human recombinant PI3Kalpha using PIP2 by Kinase-Glo Plus assay
Target sequence in this assay (P42336 whole entry, canonical isoform): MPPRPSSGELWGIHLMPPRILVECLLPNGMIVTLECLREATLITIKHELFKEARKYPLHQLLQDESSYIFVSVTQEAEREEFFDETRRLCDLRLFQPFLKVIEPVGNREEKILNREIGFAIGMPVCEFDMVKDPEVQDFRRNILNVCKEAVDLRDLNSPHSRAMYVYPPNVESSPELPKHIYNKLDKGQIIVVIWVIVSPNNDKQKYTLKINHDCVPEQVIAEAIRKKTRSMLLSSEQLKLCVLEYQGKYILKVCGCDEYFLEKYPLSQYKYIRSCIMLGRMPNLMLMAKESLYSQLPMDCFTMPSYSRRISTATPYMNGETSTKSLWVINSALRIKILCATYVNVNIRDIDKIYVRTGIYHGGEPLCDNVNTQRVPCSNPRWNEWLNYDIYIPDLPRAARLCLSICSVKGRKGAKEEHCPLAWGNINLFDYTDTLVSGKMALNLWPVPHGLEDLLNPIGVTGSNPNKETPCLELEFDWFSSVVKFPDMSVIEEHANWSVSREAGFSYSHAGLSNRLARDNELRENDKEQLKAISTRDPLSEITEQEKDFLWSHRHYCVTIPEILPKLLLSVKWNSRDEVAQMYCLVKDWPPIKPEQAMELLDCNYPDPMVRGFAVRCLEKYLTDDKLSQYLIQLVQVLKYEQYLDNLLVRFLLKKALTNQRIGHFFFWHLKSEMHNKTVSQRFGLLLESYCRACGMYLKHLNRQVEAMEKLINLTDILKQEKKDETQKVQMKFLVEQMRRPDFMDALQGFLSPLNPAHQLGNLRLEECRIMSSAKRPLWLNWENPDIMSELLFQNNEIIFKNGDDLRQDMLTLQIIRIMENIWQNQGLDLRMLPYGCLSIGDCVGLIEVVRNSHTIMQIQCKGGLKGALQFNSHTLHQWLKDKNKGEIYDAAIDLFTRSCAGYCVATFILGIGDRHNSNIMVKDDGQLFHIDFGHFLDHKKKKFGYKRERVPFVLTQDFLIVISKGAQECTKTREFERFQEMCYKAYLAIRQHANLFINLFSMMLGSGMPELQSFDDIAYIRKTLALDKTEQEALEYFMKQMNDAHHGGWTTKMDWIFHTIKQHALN

[3] = biological target: T2, Phosphatidylinositol 4,5-bisphosphate 3-kinase catalytic subunit delta isoform (Homo sapiens, UniProt O00329); test: Inhibition of human recombinant PI3Kdelta using PIP2 by Kinase-Glo Plus assay
T2 sequence (O00329 whole entry): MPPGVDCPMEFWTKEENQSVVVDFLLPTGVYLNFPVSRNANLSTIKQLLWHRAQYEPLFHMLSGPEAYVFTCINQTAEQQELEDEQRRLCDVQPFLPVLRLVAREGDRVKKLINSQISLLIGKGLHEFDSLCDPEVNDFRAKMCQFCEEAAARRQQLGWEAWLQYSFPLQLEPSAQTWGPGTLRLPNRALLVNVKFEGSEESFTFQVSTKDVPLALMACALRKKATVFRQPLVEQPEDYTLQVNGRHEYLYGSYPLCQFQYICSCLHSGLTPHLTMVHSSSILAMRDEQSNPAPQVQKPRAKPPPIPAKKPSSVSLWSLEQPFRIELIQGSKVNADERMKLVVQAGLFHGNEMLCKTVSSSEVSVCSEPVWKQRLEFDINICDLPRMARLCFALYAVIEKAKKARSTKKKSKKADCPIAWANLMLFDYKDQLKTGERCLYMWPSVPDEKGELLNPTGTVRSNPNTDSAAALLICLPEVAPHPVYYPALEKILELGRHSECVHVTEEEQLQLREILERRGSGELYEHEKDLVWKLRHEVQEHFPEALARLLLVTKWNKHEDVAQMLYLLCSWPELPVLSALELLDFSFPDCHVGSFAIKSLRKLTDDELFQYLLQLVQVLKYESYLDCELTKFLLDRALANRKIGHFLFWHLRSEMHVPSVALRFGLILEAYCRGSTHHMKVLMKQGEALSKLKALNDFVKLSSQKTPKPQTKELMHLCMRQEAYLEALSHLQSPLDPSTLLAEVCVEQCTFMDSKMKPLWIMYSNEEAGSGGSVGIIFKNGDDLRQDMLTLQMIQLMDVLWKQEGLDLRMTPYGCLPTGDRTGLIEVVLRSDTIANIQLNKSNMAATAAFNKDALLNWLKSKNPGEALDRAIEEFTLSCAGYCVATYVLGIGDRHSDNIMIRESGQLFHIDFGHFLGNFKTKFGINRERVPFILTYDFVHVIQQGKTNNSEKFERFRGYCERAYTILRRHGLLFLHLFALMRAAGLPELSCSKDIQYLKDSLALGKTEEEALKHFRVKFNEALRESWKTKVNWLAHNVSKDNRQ

[4] = biological target: T1, Phosphatidylinositol 4,5-bisphosphate 3-kinase catalytic subunit alpha isoform; test: Inhibition of PI3Kalpha mutant human BT474 cells assessed as inhibition of Akt phosphorylation at […] after 2 hrs; format: cell-based; details: bt-474
Target sequence in this assay (P42336 whole entry, looked up, canonical isoform): as the sequence (P42336 whole entry, canonical isoform) above

[5] = Intrinsic clearance in cryopreserved human hepatocytes measured per 10^6 cells; format: ADME, cell-based, Hepatocyte; details: read-out: CLH
[6] = Lipophilicity, log D of the compound at pH 7.4 by shake-flask method; format: physicochemical; details: buffer
[7] = Apparent permeability from apical to basolateral side of human Caco2 cells; format: ADME, cell-based; details: Caco-2, read-out: permeability
[8] = biological target: T3, Phosphatidylinositol 4,5-bisphosphate 3-kinase catalytic subunit beta isoform (Homo sapiens, UniProt P42338); test: Inhibition of human recombinant PI3Kbeta using PIP2 by Kinase-Glo Plus assay
T3 sequence (P42338 whole entry, canonical isoform): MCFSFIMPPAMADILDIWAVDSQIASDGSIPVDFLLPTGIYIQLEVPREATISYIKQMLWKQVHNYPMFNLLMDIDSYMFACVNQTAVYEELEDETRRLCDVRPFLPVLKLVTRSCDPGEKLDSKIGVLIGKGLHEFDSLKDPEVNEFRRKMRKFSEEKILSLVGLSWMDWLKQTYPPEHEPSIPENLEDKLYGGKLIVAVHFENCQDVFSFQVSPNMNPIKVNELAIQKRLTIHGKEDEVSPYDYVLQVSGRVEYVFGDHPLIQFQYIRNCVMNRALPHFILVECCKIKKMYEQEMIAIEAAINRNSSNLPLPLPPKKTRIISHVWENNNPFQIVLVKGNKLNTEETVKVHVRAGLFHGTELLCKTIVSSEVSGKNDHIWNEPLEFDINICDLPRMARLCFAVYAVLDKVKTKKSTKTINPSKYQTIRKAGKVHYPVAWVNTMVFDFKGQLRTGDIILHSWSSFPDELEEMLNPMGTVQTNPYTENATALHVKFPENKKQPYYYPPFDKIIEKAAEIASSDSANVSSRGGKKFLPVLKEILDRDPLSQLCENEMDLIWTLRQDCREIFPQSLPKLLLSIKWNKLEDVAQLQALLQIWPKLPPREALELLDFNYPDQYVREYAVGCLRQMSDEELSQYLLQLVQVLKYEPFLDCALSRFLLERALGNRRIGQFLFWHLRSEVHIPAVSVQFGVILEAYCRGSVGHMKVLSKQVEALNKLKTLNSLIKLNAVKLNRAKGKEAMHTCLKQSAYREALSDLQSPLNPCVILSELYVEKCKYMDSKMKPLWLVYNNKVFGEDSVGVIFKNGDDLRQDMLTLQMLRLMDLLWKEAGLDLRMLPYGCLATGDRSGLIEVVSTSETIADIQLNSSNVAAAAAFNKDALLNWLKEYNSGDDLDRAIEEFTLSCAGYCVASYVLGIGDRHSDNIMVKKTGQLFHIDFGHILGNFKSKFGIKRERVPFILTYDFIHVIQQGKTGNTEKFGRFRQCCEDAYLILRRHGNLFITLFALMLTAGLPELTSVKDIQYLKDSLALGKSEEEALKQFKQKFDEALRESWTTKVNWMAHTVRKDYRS

[9] = biological target: T3, Phosphatidylinositol 4,5-bisphosphate 3-kinase catalytic subunit beta isoform; test: Inhibition of PI3Kbeta in PTEN-null human MDA-MB-468 cells assessed as inhibition of Akt phosphorylation after 2 hrs; format: cell-based

Phosphatidylinositol 4,5-bisphosphate 3-kinase catalytic subunit gamma isoform, sequence (P48736 whole entry, canonical isoform): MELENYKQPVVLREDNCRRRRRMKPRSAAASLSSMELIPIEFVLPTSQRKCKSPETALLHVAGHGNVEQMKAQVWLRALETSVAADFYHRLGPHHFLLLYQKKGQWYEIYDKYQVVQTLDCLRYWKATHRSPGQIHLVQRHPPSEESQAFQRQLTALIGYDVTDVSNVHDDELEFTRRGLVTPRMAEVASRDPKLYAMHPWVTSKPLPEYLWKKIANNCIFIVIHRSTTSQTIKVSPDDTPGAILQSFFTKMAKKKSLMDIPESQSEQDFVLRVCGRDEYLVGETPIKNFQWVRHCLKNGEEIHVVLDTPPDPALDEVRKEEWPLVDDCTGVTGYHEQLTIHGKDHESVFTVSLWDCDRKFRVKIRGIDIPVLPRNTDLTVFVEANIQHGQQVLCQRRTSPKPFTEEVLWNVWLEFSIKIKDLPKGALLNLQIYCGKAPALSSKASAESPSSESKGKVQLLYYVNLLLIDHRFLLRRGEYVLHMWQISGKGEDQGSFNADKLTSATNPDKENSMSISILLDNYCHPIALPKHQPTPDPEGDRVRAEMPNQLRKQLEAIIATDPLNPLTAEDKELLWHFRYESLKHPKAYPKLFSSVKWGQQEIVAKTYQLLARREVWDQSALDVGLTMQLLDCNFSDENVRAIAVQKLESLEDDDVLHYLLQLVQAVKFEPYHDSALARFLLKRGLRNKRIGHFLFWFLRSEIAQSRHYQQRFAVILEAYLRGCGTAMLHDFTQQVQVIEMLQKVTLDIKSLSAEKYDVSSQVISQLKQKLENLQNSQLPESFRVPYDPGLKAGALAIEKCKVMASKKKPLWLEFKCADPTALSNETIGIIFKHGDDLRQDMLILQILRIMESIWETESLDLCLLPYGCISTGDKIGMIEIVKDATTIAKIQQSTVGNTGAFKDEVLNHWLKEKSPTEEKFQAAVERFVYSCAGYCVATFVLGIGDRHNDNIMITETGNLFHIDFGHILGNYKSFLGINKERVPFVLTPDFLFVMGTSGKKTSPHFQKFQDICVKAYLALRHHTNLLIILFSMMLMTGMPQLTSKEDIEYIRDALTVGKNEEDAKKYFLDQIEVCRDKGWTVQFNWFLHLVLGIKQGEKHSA

IC50 [1] | IC50 [2] | IC50 [3] | IC50 [4] | hepatocyte CLint [5] | logD [6] | Papp A→B [7] | IC50 [8] | IC50 [9] | SMILES
350 nM | 29 nM | 20 nM | 280 nM | < 3 µL/min/1e6 cells | 2.6 | 9.2 ×10⁻⁶ cm/s | – | – | C[C@@H](Nc1cc(F)cc(F)c1)c1cc(C(=O)N2CCC2)cc2c(=O)cc(N3CCOCC3)oc12
250 nM | 18 nM | 14 nM | 960 nM | < 3 µL/min/1e6 cells | 2.8 | 3.5 ×10⁻⁶ cm/s | 6 nM | 3 nM | CNC(=O)c1cc([C@@H](C)Nc2cc(F)cc(F)c2)c2oc(N3CCOCC3)cc(=O)c2c1
930 nM | 110 nM | 59 nM | 2100 nM | 5 µL/min/1e6 cells | 2.5 | – | 8 nM | 7 nM | CCN(C)C(=O)c1cc(C(C)Nc2cc(F)cc(F)c2)c2oc(N3CCOCC3)cc(=O)c2c1 (racemic)
700 nM | 98 nM | 50 nM | 400 nM | 6 µL/min/1e6 cells | 2.7 | 8.5 ×10⁻⁶ cm/s | 9 nM | 2 nM | CC(Nc1cc(F)cc(F)c1)c1cc(C(=O)N2CCCC2)cc2c(=O)cc(N3CCOCC3)oc12 (racemic)
1000 nM | 200 nM | 59 nM | 3100 nM | 21 µL/min/1e6 cells | 3.1 | – | 12 nM | 14 nM | CC(Nc1cc(F)cc(F)c1)c1cc(C(=O)N2CCCCC2)cc2c(=O)cc(N3CCOCC3)oc12 (racemic)
2400 nM | 300 nM | 115 nM | 6000 nM | < 3 µL/min/1e6 cells | 1.7 | 4.8 ×10⁻⁶ cm/s | 11 nM | 33 nM | CC(Nc1cc(F)cc(F)c1)c1cc(C(=O)N2CCOCC2)cc2c(=O)cc(N3CCOCC3)oc12 (racemic)
830 nM | 230 nM | 90 nM | 6400 nM | < 3 µL/min/1e6 cells | 1.8 | 1 ×10⁻⁶ cm/s | 11 nM | 17 nM | CC(Nc1cc(F)cc(F)c1)c1cc(C(=O)N2CCC(O)CC2)cc2c(=O)cc(N3CCOCC3)oc12 (racemic)
710 nM | 59 nM | 44 nM | 2900 nM | < 4 µL/min/1e6 cells | 3.1 | – | 9 nM | 14 nM | CCNC(=O)c1cc(C(C)Nc2cc(F)cc(F)c2)c2oc(N3CCOCC3)cc(=O)c2c1 (racemic)
3500 nM | 510 nM | 120 nM | 5900 nM | 12 µL/min/1e6 cells | 3.1 | – | 13 nM | 100 nM | CC(c1cc(C(=O)N2CCCC2)cc2c(=O)cc(N3CCOCC3)oc12)N(C)c1cc(F)cc(F)c1 (racemic)

Continued, compound first:

SMILES | IC50 [1] | IC50 [2] | IC50 [3] | IC50 [4] | hepatocyte CLint [5] | logD [6] | Papp A→B [7] | IC50 [8] | IC50 [9]
C[C@@H](Nc1cc(F)c(F)c(F)c1)c1cc(C(=O)N(C)C)cc2c(=O)cc(N3CCOCC3)oc12 | 1400 nM | 110 nM | 23 nM | 1500 nM | < 4 µL/min/1e6 cells | – | – | – | –
C[C@H](Nc1cc(F)cc(F)c1)c1cc(C(=O)N(C)C)cc2c(=O)cc(N3CCO[C@@H](C)C3)oc12 | 2900 nM | 130 nM | 79 nM | 2600 nM | < 3 µL/min/1e6 cells | 2.6 | – | 9 nM | 12 nM
CN(C)C(=O)c1cc(CN(C)c2cc(F)cc(F)c2)c2oc(N3CCOCC3)cc(=O)c2c1 | – | – | – | – | < 5 µL/min/1e6 cells | 2.6 | 36 ×10⁻⁶ cm/s | – | –
C[C@@H](Oc1cc(F)cc(F)c1)c1cc(C(=O)N(C)C)cc2c(=O)cc(N3CCOCC3)oc12 | 13000 nM | 970 nM | 160 nM | 7400 nM | 7 µL/min/1e6 cells | 2.2 | 31 ×10⁻⁶ cm/s | 17 nM | 132 nM
CC(Nc1cccc(F)c1)c1cc(C(=O)N(C)C)cc2c(=O)cc(N3CCOCC3)oc12 (racemic) | 2600 nM | 220 nM | 73 nM | 2400 nM | < 3 µL/min/1e6 cells | 1.9 | – | 12 nM | 32 nM
CC(Nc1ccc(F)cc1)c1cc(C(=O)N(C)C)cc2c(=O)cc(N3CCOCC3)oc12 (racemic) | 13000 nM | 810 nM | 110 nM | 12400 nM | < 3 µL/min/1e6 cells | 1.5 | – | 18 nM | 128 nM
CC(Nc1cccc(Cl)c1)c1cc(C(=O)N(C)C)cc2c(=O)cc(N3CCOCC3)oc12 (racemic) | 700 nM | 85 nM | 73 nM | 790 nM | < 4 µL/min/1e6 cells | 2.5 | – | 10 nM | 9 nM
CC(Nc1ccc(F)c(Cl)c1)c1cc(C(=O)N(C)C)cc2c(=O)cc(N3CCOCC3)oc12 (racemic) | 1800 nM | 170 nM | 64 nM | 5500 nM | 8 µL/min/1e6 cells | 2.4 | – | 12 nM | 16 nM
Cc1cc(F)cc(NC(C)c2cc(C(=O)N(C)C)cc3c(=O)cc(N4CCOCC4)oc23)c1 (racemic) | 2200 nM | 130 nM | 110 nM | 2900 nM | 6 µL/min/1e6 cells | 2.2 | – | 15 nM | 49 nM
COc1cc(F)cc(NC(C)c2cc(C(=O)N(C)C)cc3c(=O)cc(N4CCOCC4)oc23)c1 (racemic) | 1600 nM | 160 nM | 61 nM | 1700 nM | < 3 µL/min/1e6 cells | 1.9 | – | 10 nM | 15 nM
CC(Nc1cc(Cl)cc(Cl)c1)c1cc(C(=O)N(C)C)cc2c(=O)cc(N3CCOCC3)oc12 (racemic) | 630 nM | 110 nM | 52 nM | 1900 nM | 18 µL/min/1e6 cells | 3.2 | – | 10 nM | 17 nM
COCCN(C)C(=O)c1cc(C(C)Nc2cc(F)cc(F)c2)c2oc(N3CCOCC3)cc(=O)c2c1 (racemic) | 2600 nM | 290 nM | 160 nM | 2600 nM | 6 µL/min/1e6 cells | 2.2 | – | 11 nM | –
CC(Nc1cc(F)cc(F)c1)c1cc(C(=O)N(C)CCO)cc2c(=O)cc(N3CCOCC3)oc12 (racemic) | 530 nM | 90 nM | 62 nM | 6900 nM | < 3 µL/min/1e6 cells | 1.5 | 1 ×10⁻⁶ cm/s | 10 nM | 15 nM
CCN(CC)C(=O)c1cc(C(C)Nc2cc(F)cc(F)c2)c2oc(N3CCOCC3)cc(=O)c2c1 (racemic) | 1200 nM | 150 nM | 71 nM | 3200 nM | 17 µL/min/1e6 cells | 3.2 | – | 10 nM | 16 nM
COCCNC(=O)c1cc(C(C)Nc2cc(F)cc(F)c2)c2oc(N3CCOCC3)cc(=O)c2c1 (racemic) | 520 nM | 57 nM | 54 nM | 13000 nM | < 3 µL/min/1e6 cells | 2.1 | 0.28 ×10⁻⁶ cm/s | 9 nM | 31 nM

Reference: ChEMBL document CHEMBL3407416, “Discovery of (R)-8-(1-(3,5-difluorophenylamino)ethyl)-N,N-dimethyl-2-morpholino-4-oxo-4H-chromene-6-carboxamide (AZD8186): a potent and selective inhibitor of PI3Kβ and PI3Kδ for the treatment of PTEN-deficient cancers” (J Med Chem, 2015)
